Reference: ChEMBL document CHEMBL1124359, “Quantitative structure-activity relationships in dihydropteroate synthase inhibition by multisubstituted sulfones. Design and synthesis of some new derivatives with improved potency” (J Med Chem, 1989)
“And” between values parts separate entries of the source, which are not always exact repeats. Identical values can stand only once.

How the values were obtained:
Escherichia coli [1] = test: Inhibitory activity (apE=log(1/EII50)) against dihydropteroate synthase from Escherichia coli
Escherichia coli [2] = test: Inhibitory activity (Enzyme inhibition index) against dihydropteroate synthase from Escherichia coli.

Row | SMILES | apE (Escherichia coli [1]) | EII50 (Escherichia coli [2])
1 | Cc1cc(C)c(S(=O)(=O)c2ccc(N)cc2)c(C)c1 | -0.23 | 1.69
2 | Nc1ccc(S(=O)(=O)c2ccc(N)cc2N)cc1 | -0.2 | 1.59
3 | COc1cc(C)cc(C)c1S(=O)(=O)c1ccc(N)cc1 | -0.48 | 3.02
4 | COc1cc(C)c(S(=O)(=O)c2ccc(N)cc2)c(C)c1 | -0.25 | 1.77
5 | COc1ccc(S(=O)(=O)c2ccc(N)cc2)c(C)c1 | -0.25 | 1.77
6 | Nc1ccc(S(=O)(=O)c2ccc(O)cc2O)cc1 | 0.29 and 0.15 | 0.51 and 0.71
7 | Cc1cc(O)cc(C)c1S(=O)(=O)c1ccc(N)cc1 | 0.29 and 0.59 | 0.51 and 0.25
8 | Nc1ccc(S(=O)(=O)c2c(O)cc(O)cc2O)cc1 | – | 1.91 and 1.46
9 | Nc1ccc(S(=O)(=O)c2ccc(O)cc2Cl)cc1 | 0.59 and 0.58 | 0.26
10 | Nc1ccc(S(=O)(=O)c2c(Cl)cc(Cl)cc2Cl)cc1 | -0.52 | 3.31
11 | COc1ccc(S(=O)(=O)c2ccc(N)cc2)c(OC)c1 | -0.51 | 3.21
12 | Nc1ccc(S(=O)(=O)c2ccc(Cl)cc2Cl)cc1 | -0.35 | 2.24
13 | Nc1ccc(S(=O)(=O)c2ccc(N)cc2)cc1 | -0.42 | 2.64
14 | Cc1cc(O)ccc1S(=O)(=O)c1ccc(N)cc1 | 0.66 and 0.47 | 0.23 and 0.34
15 | Nc1ccc(S(=O)(=O)c2ccc([N+](=O)[O-])cc2[N+](=O)[O-])cc1 | -1.56 | 36.3
16 | Cc1ccc(S(=O)(=O)c2ccc(N)cc2)c(C)c1 | -0.28 | 1.89
17 | COc1cc(OC)c(S(=O)(=O)c2ccc(N)cc2)c(OC)c1 | -1.11 | 12.9
